Experimental data from patent US20220098160A1, “NOVEL CDK 8/19 INHIBITORS” (BIOCAD, priority 2018, published 2022).
Counter-ions that a name gives are not always drawn.

Key:
[1] = General cytotoxicity test on HepG2 cells; type: cell-based; settings: human, 72 hours incubation, 200 to 0.78 μM, average of several runs, read-out: Hep-G2 CC50
Experimental: The CC50 value was determined in a cytotoxicity test. The experiments were performed using HepG2 cells (hepatocellular carcinoma, ATCC© HB-8065™). The cells were seeded into 96-well plates (Corning, #3599) at a concentration of ˜20×10^3 cells per 100 μl of medium per well, and incubated for 72 hours with the introduced compounds in the concentration range from 200 to 0.78 μM. Cell viability was evaluated according to the method described above.

MV4-11 cell line = assay: Antiproliferative activity on MV4-11 cell line (AlamarBlue); type: cell-based; settings: Homo sapiens, 120 h incubation, average of several runs, read-out: MV-4-11 IC50
Experimental: The antiproliferative activity of the CDK8 inhibitors according to the present invention was measured in a cell test on a finite MV4-11 cell line (biphenotypic myelomonocytic leukemia, ATCC© CRL-9591™) using an intravital AlamarBlue dye (ThermoFisher, #DAL1100). The cells were grown on an RPMI-1640 medium (PanEco, #C330p) supplemented with 10% FBS (Gibco, #16140-071), then washed and re-seeded on a culture medium with 10% FBS (Gibco, #16140-071) in 96-well culture plates (Corning, #3599) in the amount of ˜10×10^3 cells per 100 μl of medium per well. The tested compounds were dissolved in DMSO and diluted with 10% FBS (Gibco, #16140-071) to a final concentration ranging from 0 to 100 μM. […] At the end of the incubation period, 15 μl of AlamarBlue reagent (ThermoFisher, #DAL1100) were added to the wells. The contents of the plates were mixed using an orbital shaker (Biosan, Latvia), and incubated further from 3 to 5 hours at 37° C. in an incubator with 5% C02. The number of living cells was detected using a microplate spectrophotometer (Tecan Infinite M200Pro, Switzerland) by measuring a fluorescence signal at an excitation wavelength (λEx) of 540 nm and emission wavelength (λEm) of 590 nm.
The IC50 value was determined using the Magellan 7.2 program (Tesap, Switzerland) by approximating the experimental points using a four-parameter model with the Levenberg-Marquardt optimization (Table 10).

CDK8/CyclinC = target: T1, CDK8/CyclinC (Homo sapiens, UniProt P49336); assay: LanthaScreen TR-FRET binding to recombinant CDK8 in complex with Cyclin C; settings: CDK8/CyclinC 5 nM, Tracer 236 10 nm, average of several runs; read-out: CDK8-CycC IC50
T1 construct: purchased ThermoFisher PR7261B
Experimental: The ability of the compounds described herein to bind to the CDK8 protein was determined using the LanthaScreen method (ThermoFisher).
The measurements were conducted in a reaction volume (15 μl) using a 384-well plate (Corning, #CLS4513). CDK8/CyclinC enzyme (ThermoFisher, #PR7261B) was mixed with Anti-His-tag-Biotin antibodies (ThermoFisher, #PV6090), Streptavidin-Eu (ThermoFisher, #PV6025), and the resulting mixture was added to the wells of the plate in the amount of 5 μl per well. The final concentrations of the substances were as follows: CDK8/CyclinC—5 nM, Streptavidin-Eu—3 nM, Anti-His-tag-Biotin—3 nM. Staurosporine was used as a control inhibitor, and a 0.1% solution of dimethyl sulfoxide (DMSO) in the reaction buffer containing 250 mM HEPES (pH 7.5), 50 mM MgCl2, 5 mM EGTA, and 0.05% Brij-35 was used as a blank.
Tested inhibitors and controls were added to the corresponding wells in the amount of 5 μl per well. The plate was incubated at room temperature for 20 minutes. […] The final concentration of the tracer was 10 nm. A reaction buffer was used as a negative control instead of the tracer solution. The plate was incubated for 40 minutes at 25° C. Then the TR-FRET signal was measured on a SPARK20 plate reader (Tesap, Switzerland) according to the manufacturer's recommendations, and converted to the amount of kinase-bound tracer. The IC50 value was determined using the SparkControl Magellan 1.2 program (Tesap, Switzerland) by approximating the experimental points using a four-parameter model with the Levenberg-Marquardt optimization (Table 11).

[2] = Chemical stability in human blood plasma; type: in vitro ADME; settings: pooled human blood plasma, 10 μM, 4 hours at 37° C., amount of substance remaining
Experimental: Chemical stability of the compounds described herein was determined in human blood plasma.
The determination of stability in human blood plasma was performed using a pooled human blood plasma taken from ten healthy donors. The initial solution of the candidate (10 mM in DMSO) was diluted with the pooled blood plasma to a concentration of 10 μM (test solution). The test solution was incubated in a solid-state thermostat for 4 hours at 37° C. The HPLC method and Agilent1200 chromatograph (Agilent, USA) were used to determine the peak areas of the compounds in the test samples corresponding to the initial test time (before incubation) and the final test time (after incubation in a solid-state thermostat for 4 hours at 37° C.) with preliminary precipitation of proteins using acetonitrile. Chromatographic analysis was performed using a gradient elution mode at a flow rate of 1 ml/min. The amount of substance in the sample expressed in % was determined after the thermostat treatment.

[3] = Permeability through a monolayer of Caco-2 cells; type: in vitro ADME; settings: human; for Papp A→B at 2 h, 10 μM: pH 6.5 upper / pH 7.4 lower chamber, 2 h at 37° C.; for efflux ratio at 2 h, 10 μM: Papp B-A/Papp A-B
Experimental: Determining the permeability through a monolayer of Caco-2 cells makes it possible to assess the ability of the substances to penetrate biological membranes by means of both active and passive transport.
The intestinal epithelial cells (Caco-2) were cultured using filter inserts ([…], BD Falcon with High Density) for 21 days, after which the monolayer integrity was checked using a Lucifer Yellow dye (Sigma-Aldrich, USA) according to the standard protocol. When setting up an A→B transfer (“intestinal lumen”—“blood flow” transfer), solutions of the tested substances were introduced in pH 6.5 buffer (HBSS, 10 mM HEPES, 15 mM glucose solution) at a concentration of 10 μM into the upper chamber, while the lower chamber was filled with pH 7.4 buffer (HBSS, 10 mM HEPES, 15 mM Glucose solution, 1% BSA). When setting up a B→A transfer (“blood flow”—“intestinal lumen” transfer), the upper chamber was filled with pH 6.5 buffer, and the solutions of the tested substances were introduced in pH 7.4 buffer at a concentration of 10 μM into the lower chamber. Propranolol, which is a high permeability substance, was used as a control.
After incubation for 2 h at 37° C. in an atmosphere containing 5% CO2, the amounts of the tested substances in the upper and lower chambers were determined by the HPLC method using an Agilent1200 chromatograph (Agilent, USA) with preliminary precipitation of proteins with acetonitrile. Chromatographic analysis was performed using a gradient elution mode at a flow rate of 1 ml/min. Peak areas corresponding to the compounds were determined on chromatograms. Based on the peak area values of the compound in calibration standards, compound concentrations in the initial solution and in the samples taken from the wells of the upper and lower chambers were determined.
Permeability through a layer of cells (Papp) was calculated based on the formula:
Papp=(C(t)*V)/(C(θ)*t*Area), where
Papp is the effective permeability constant, m/s V is the solution volume (0.8 ml in the A→B test, and 0.2 ml in the B→A test), ml Area is the surface area of the membrane (0.33 cm^2), cm^2 t is the incubation time (7,200 s), s C(θ) is the concentration of the initial solution, μM C(t) is the concentration of the solution after 2 hours (in the sample from the lower chamber well (test A→B), and in the sample from the upper chamber well (test B→A)), μM.
The value was calculated using the following formula:
efflux=Papp B-A/Papp A-B, where
Papp A-B is the permeability value during direct assay (A→B); Papp B-A is the permeability value during reverse assay (B→A);

[4] = Enzymatic stability in human liver S9 fractions; type: in vitro ADME; settings: pooled human liver S9 fraction; 0.5 mg/ml human liver S9, 10 μm compound, 37° C., pH 7.4
Experimental: Determining enzymatic stability of the candidates made it possible to evaluate the resistance of the compounds of the present invention to the exposure to biotransformation enzymes.
The enzymatic decomposition rate of the compounds was determined by incubation in a solid-state thermostat at 37° C. of a reaction mixture containing 0.5 mg/ml of pooled S9 fractions of the human liver (XenoTech, USA, cat. # H0610), 10 μm compounds, 2 mM β-nicotinamide adenine dinucleotide (Carbosynth, UK, cat. # NN 10871), and 4 mM magnesium chloride in 0.1 M sodium phosphate buffer (pH=7.4). The reaction was stopped with acetonitrile based on 100 μl of acetonitrile per 100 μl of the reaction mixture. After stopping the reaction, the samples were centrifuged for 10 minutes at 10,000 rpm. The supernatant was analyzed by chromatography using an Agilent1200 chromatograph (Agilent, USA). Chromatographic analysis was performed in a gradient elution mode at a flow rate of 1 ml/min. A logarithm of the peak area of the substance was plotted versus time. The dependent coefficient of this line corresponded to the elimination rate constant (k), which was used to calculate the half-life of the drug (t1/2) and decomposition rate (CLint): […]

T1 sequence (P49336 whole entry): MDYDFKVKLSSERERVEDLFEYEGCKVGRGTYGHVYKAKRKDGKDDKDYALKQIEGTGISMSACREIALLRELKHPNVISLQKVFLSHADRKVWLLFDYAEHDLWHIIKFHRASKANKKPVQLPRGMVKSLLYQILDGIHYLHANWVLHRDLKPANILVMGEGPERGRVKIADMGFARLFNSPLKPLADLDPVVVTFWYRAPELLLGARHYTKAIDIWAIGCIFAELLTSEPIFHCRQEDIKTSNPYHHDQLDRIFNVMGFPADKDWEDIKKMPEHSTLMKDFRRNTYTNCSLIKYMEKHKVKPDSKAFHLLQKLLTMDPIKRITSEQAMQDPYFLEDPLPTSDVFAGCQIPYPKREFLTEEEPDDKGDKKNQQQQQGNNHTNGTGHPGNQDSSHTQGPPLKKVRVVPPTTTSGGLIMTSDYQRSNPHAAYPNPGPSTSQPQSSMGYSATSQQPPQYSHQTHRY
T1 sequence (P24863 whole entry partner): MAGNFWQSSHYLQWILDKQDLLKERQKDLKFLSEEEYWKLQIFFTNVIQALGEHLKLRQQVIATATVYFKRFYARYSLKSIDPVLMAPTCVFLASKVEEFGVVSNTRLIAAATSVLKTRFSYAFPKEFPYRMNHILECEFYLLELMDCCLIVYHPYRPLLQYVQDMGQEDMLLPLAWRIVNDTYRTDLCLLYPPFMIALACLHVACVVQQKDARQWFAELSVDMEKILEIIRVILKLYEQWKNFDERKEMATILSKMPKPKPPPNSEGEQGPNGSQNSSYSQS

Row | SMILES | IC50 (MV4-11 cell line) | IC50 (CDK8/CyclinC) | Stability in blood plasma, % [2] | Stability in blood plasma, % ([2]; dihydrochloride) | CC50 at 72 h [1] | Papp A→B at 2 h, 10 μM [3] | efflux ratio at 2 h, 10 μM [3] | microsomal CLint at 10 μM [4]
1 | CN1CCN(C(=O)c2ccc3cc(CCOc4ccnc5ccc(C#N)cc45)ccc3c2)CC1 [Compound 8, 4-(2-(6-(4-methylpiperazine-1-carbonyl)naphth-2-yl)ethoxy) quinoline-6-carbonitryl] | 0.602 µM | 0.0582 µM | – | – | 11.2 µM | – | – | –
2 | CN1CCN(C(=O)c2ccc3cc(CCNc4ccnc5ncc(C#N)cc45)ccc3c2)CC1 [Compound 11, 5-((2-(6-(4-methylpiperazine-1-carbonyl)naphth-2-yl)ethyl)amino)-1,8-naphthyridin-3-carbonitryl] | 3.3 µM | 0.655 µM | – | – | 85.1 µM | – | – | –
3 | CN1CCN(C(=O)c2ccc3cc(CCNc4c(Cl)cnc5ccc(C#N)cc45)ccc3c2)CC1 [Compound 9, 3-chloro-4-((2-(6-(4-methylpiperazine-1-carbonyl)naphth-2-yl)ethyl)amino) quinoline-6-carbonitryl] | 0.106 µM | 0.0205 µM | 91.1% | – | 47.3 µM | – | – | –
4 | CN1CCN(C(=O)c2ccc3cc(CCNc4cnnc5ccc(C#N)cc45)ccc3c2)CC1 [Compound 4, 4-((2-(6-(4-methylpiperazine-1-carbonyl)naphth-2-yl)ethyl)amino) cinnoline-6-carbonitryl] | – | 0.404 µM | – | – | – | – | – | –
5 | N#Cc1ccc2nccc(NCCc3ccc4cc(C(=O)N5CCN(CC(F)(F)F)CC5)ccc4c3)c2c1 [Compound 17, 4-((2-(6-(4-(2,2,2-trifluoroethyl)piperazine-4-carbonyl)naphth-2-yl)ethyl)amino)quinoline-6-carbonitryl] | 0.113 µM | 0.0285 µM | – | – | 17.9 µM | – | – | –
6 | N#Cc1ccc2nccc(NCCc3ccc4cc(C(=O)N5CCNCC5)ccc4c3)c2c1 [Compound 18, 4-((2-(6-(piperazine-1-carbonyl)naphth-2-yl)ethyl)amino)quinoline-6-carbonitryl] | 0.019 µM | – | 100% | – | 11.6 µM | 22.4 ×10⁻⁶ cm/s | 0.3 | 4.4 µL/min/mg
7 | CN1CCN(C(=O)c2ccc3cc(CCSc4ccnc5ccc(C#N)cc45)ccc3c2)CC1 [Compound 19, 4-((2-(6-(4-methylpiperazine-1-carbonyl)naphth-2-yl)ethyl)thio) quinoline-6-carbonitryl] | 2.61 µM | 0.118 µM | – | – | > 200 µM | – | – | –
8 | CN1CCN(C(=O)c2ccc3cc(CCNc4c(Cl)cnc5ccc(C#N)cc45)ccc3c2)CC1 [Compound 9a, 3-chloro-4-((2-(6-(4-methylpiperazine-1-carbonyl)naphth-2-yl)ethyl)amino) quinoline-6-carbonitryl dihydrochloride] | – | – | – | 87.9% | – | – | – | –

Continued, in another order:

Row | IC50 (MV4-11 cell line) | IC50 (CDK8/CyclinC) | Stability in blood plasma, % [2] | Stability in blood plasma, % ([2]; dihydrochloride) | SMILES | CC50 at 72 h [1] | Papp A→B at 2 h, 10 μM [3] | efflux ratio at 2 h, 10 μM [3] | microsomal CLint at 10 μM [4]
9 | 0.079 µM | 0.00654 µM | – | – | CCN1CCN(C(=O)c2ccc3cc(CCNc4ccnc5ccc(C#N)cc45)ccc3c2)CC1 [Compound 12] | 10.6 µM | – | – | –
10 | 0.125 µM | 0.00607 µM | 100% | – | CN1CCN(C(=O)c2ccc3cc(CCNc4ccnc5ccc(C#N)cc45)ccc3c2)CC1 [Compound 5, 4-((2-(6-(4-methylpiperazine-1-carbonyl)naphth-2-yl)ethyl)amino) quinoline-6-carbonitryl] | > 60 µM | 7.1 ×10⁻⁶ cm/s | 2 | 7.2 µL/min/mg
11 | 0.091 µM | 0.00577 µM | – | – | CC(C)N1CCN(C(=O)c2ccc3cc(CCNc4ccnc5ccc(C#N)cc45)ccc3c2)CC1 [Compound 7] | 8.9 µM | – | – | –
12 | 0.057 µM | 0.00404 µM | – | – | N#Cc1ccc2nccc(NCCc3ccc4cc(C(=O)N5CCOCC5)ccc4c3)c2c1 [Compound 13] | ~15 µM | – | – | –
